Data set [1] in a line: 1H NMR stability of Telox-2 in D2O (0.01% dDMSO). Type of data set: physicochemical. The text has this: To investigate the stability of Telox-2 compared to Telox ^1H NMR spectra of Telox-2 were collected over a period of 1 week under biologically-relevant conditions (0.01% dDMSO in D2O).
The test system of the next data set is HCT116 cells. Description: Mass cytometry hypoxia labelling (130Te signal). Type of data set: cell-based. An excerpt:
FIGS. 4A-E show a schematic representation and density maps and plots. FIG. 4A is a schematic representation of Telox/Telox2 cell labelling for analysis via mass cytometry on a second-generation CyTOF instrument. FIG. 4b) is a density map of signal event length vs. ^130Te signal (arbitrary units). FIG. 4c) is a density plot output from the top-right gate in b) of ^193Ir signal (arbitrary units) vs. ^103Rh signal (arbitrary units). More than 93% of detected events fall in the square gate. FIG. 4d) is a density plot output from the bottom-left gate in b) of ^193Ir signal (arbitrary units) vs. ^103Rh signal (arbitrary units). More than 89% of detected events fall in the square gate. FIG. 4e) is a population histograms of cell ^130Te content (arbitrary units). Oxygen concentrations are listed as numerical percentages, P=Pimonidazole (100 μM). Blue and red histograms are Pimonidazole-negative controls. Orange and green histograms are Pimonidazole- positive competition experiments. Note: warmer colors in density plots indicate higher cell population density.
FIGS. 8A and B show a) the absolute ^130Te signal as a function of concentration as determined by mass cytometry analysis of HCT116 cells incubated with the exemplary compound, Telox-2, for 3 hours in either near-anoxic (˜0% O2), hypoxic (˜1% O2) or normoxic (21% O2) atmosphere; and b) the signal-to-noise (fold-change) representation of the data presented in part a.
FIGS. 9A-D show a) Absolute ^130Te signal as a function of time as determined by mass cytometry analysis of HCT116 cells incubated with 10 μM of the exemplary compound,Telox-2 (constant exposure), in either near-anoxic (˜0% O2), hypoxic (˜1% O2) or normoxic (21% O2) atmosphere; b) the signal-to-noise (fold-change) representation of the data presented in part a; and c) the absolute ^130Te signal as a function of time as determined by mass cytometry analysis of HCT116 cells incubated with 10 μM Telox-2 for 3 hours followed by replacement of Telox-2-containing media with fresh media in either near-anoxic (˜0% O2), hypoxic (˜1% O2) or normoxic (21% O2) atmosphere; and d) the signal-to-noise (fold-change) representation of the data presented in part c.
HCT116 (500,000) cells were seeded in 60 mm plastic petri dishes (Corning Inc., NY) and incubated for 24 h at 37° C., 21% O2/5% CO2. The cells were transferred to hypoxia chambers (H35/H85 hypoxia workstation, Don Whitley Scientific) maintained at 1%/0.2% or <0.02% O2 for 3 h. Hypoxia experiments (<0.02% O2) were performed by seeding the cells in 60 mm glass plates (Corning Inc., NY).
HCT 116 cells (see sections i and ii) were incubated in media containing Telox or Telox2 (100 μM, added as a neat solution in sterile DMSO; final [DMSO]=0.1%) for 3 hours under atmosphere containing an appropriate concentration of O2. Following incubation, the media was removed, cells were washed with sterile PBS, and then separated from the incubation plate via trypsinization (37° C., 10 min) and gentle scraping. The cell suspension was pelleted and resuspended in PBS containing β-ME (1.0 mL, 100 mM). Cells were pelleted, resuspended in PBS (900 μL, no β-ME), and fixed with formaldehyde (100 μL, 37% solution) for 25 minutes. Following fixation, cells were pelleted, resuspended in PBS containing β-ME (1.0 mL, 100 mM), and pelleted once again. Cells were then resuspended in PBS ([…], no β-ME) and incubated with either the Ir-containing nucleic acid intercalator (hypoxic cells) or the Rh containing nucleic acid intercalator (normoxic cells) (10 μL, 100 μM solution in sterile PBS) for 20 minutes. Cells were then pelleted and resuspended in PBS (1.0 mL, no β-ME) twice. Cell pellets were then resuspended in PBS containing ^151/153EU beads (1/10 dilution of CyTOF® calibration beads, DVS Sciences, 1.0-2.5 mL depending on pellet size). The two cells samples were then combined (250 μL of each) and 250 μL of the resultant sample was injected onto a second-generation CyTOF® instrument for MC analysis. […]

The nature of data set [2]: UV-Vis stability of Telox-2 in aqueous buffer. The note with it: 200 μM, 0.01% DMSO in phosphate-buffered saline. It counts as physicochemical. As to the method:
Concentration of Telox-2=200 μM (0.01% DMSO in phosphate-buffered saline). The small spectrum identifies the unique absorptions of the tellurophene and nitroimidazole functionalities.
An orthogonal stability assay using UV-Vis spectroscopy was performed to corroborate the NMR stability findings (FIG. 6). In this assay, UV-Vis spectra of Telox-2 were recorded at a fixed concentration in aqueous buffer over a period of 3 days. Loss of either heterocycle, tellurophene or nitroimidazole, as a result of degradation would be expected to cause a decrease in absorbance at 282 and/or 325 nm respectively.

The values below come from patent publication US10816552B2 (The Governing Council of the University of Toronto, priority 2014, dated 2020).

Each structure is given as a SMILES string.

Consider `O=[N+]([O-])c1nccn1CCc1ccc[te]1` [Telox-2, 2-nitro-1-(2-(tellurophen-2-yl)ethyl)-1H-imidazole], for which the “degradation by 1H NMR over 1 week” value in data set [1] (0.01% dDMSO in D2O, 1 week, 200 μM) was “no observable degradation”. Besides, in data set [1] (high concentrations (2 mM)), the “aggregate or micelle formation in aqueous solution (1H NMR peak broadening)” value is “does not form aggregates or micelles”. Also, the “signal-to-noise vs incubation time, constant exposure” value with HCT116 cells (HCT116, 10 μM, near-anoxic and moderately hypoxic vs normoxic control) is given as “enhanced as incubation time increases”. Further, the “signal-to-noise under moderately hypoxic conditions vs near-anoxic” value with HCT116 cells (HCT116, 1% O2) was “significantly lower”. In addition, in the data set with HCT116 cells (HCT116, 3 hours exposure then fresh media up to additional 21 hours), the “loss of probe-protein conjugates after pulsed exposure” value is reported as “exponential-type decay”. The “optimal probe concentration to maximize signal-to-noise” value in the data set on HCT116 cells (HCT116, 3 hours, normoxic vs near-anoxic) was determined as 10 µM. For the same compound, the “change in absorbance at 282 and/or 325 nm over 3 days” value in data set [2] is on record as “No change in absorbance”.
